Data reported in the supplement of paper PMC10307832.

What was measured:
Assay in all cases: relative viability (nuclei count vs DMSO), 5 days (fraction); higher = more cells survive
[1] = compound: C1=CC=C2C(=C1)C=CC(=C2SSC3=C(C=CC4=CC=CC=C43)O)O [IPA-3] + NC(=O)Nc1cc(-c2cccc(F)c2)sc1C(=O)N[C@H]1CCCNC1 [AZD7762] (partner 0.2 µM)
Method in brief: (§1)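 Relative viability divides the nuclei count in treated wells by that in vehicle wells. Lung cancer cell lines were seeded in 1536-well plates, dosed by pin tool the next day, and fixed and stained after 5 days in one step with final 0.05% Triton X-100, 1% formaldehyde and 1 ug/ml Hoechst. Dosing was a single drug or a fixed anchor-drug dose plus five library-drug doses (not always all listed) in √10 steps, and values are medians of duplicate plates imaged at 4×.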

[2] = compound: C1=CC=C2C(=C1)C=CC(=C2SSC3=C(C=CC4=CC=CC=C43)O)O [IPA-3] + O=C(CCCCCCC(=O)Nc1ccccc1)NO [Vorinostat] (partner 1 µM)
Method in brief: as §1

[3] = compound: C1=CC=C2C(=C1)C=CC(=C2SSC3=C(C=CC4=CC=CC=C43)O)O [IPA-3] + O=C(c1cc(Cc2n[nH]c(=O)c3ccccc23)ccc1F)N1CCN(C(=O)C2CC2)CC1 [Olaparib] (partner 8 µM)
Method in brief: as §1

[4] = compound: Cc1ccc(-n2nc(C(C)(C)C)cc2NC(=O)Nc2ccc(OCCN3CCOCC3)c3ccccc23)cc1 [Doramapimod] + O=C(CCCCCCC(=O)Nc1ccccc1)NO [Vorinostat] (partner 1 µM)
Method in brief: as §1

Cell Line	relative viability ([1]; first compound 0.2 µM)	relative viability ([1]; first compound 0.6325 µM)	relative viability ([1]; first compound 2 µM)	relative viability ([1]; first compound 6.325 µM)	relative viability ([1]; first compound 20 µM)	relative viability ([2]; first compound 0.2 µM)	relative viability ([2]; first compound 0.6325 µM)	relative viability ([2]; first compound 2 µM)	relative viability ([2]; first compound 6.325 µM)	relative viability ([2]; first compound 20 µM)	relative viability ([3]; first compound 0.2 µM)	relative viability ([3]; first compound 0.6325 µM)	relative viability ([3]; first compound 2 µM)	relative viability ([3]; first compound 6.325 µM)	relative viability ([3]; first compound 20 µM)	relative viability ([4]; first compound 0.02 µM)	relative viability ([4]; first compound 0.06325 µM)	relative viability ([4]; first compound 0.2 µM)	relative viability ([4]; first compound 0.6325 µM)	relative viability ([4]; first compound 2 µM)
NCI-H727	0.652	0.604	0.674	0.617	0.706	1.25	1.01	1.27	1.07	1.2	0.659	0.946	0.638	0.656	0.698	1.18	1.18	1.14	1.05	1.1
HARA	0.341	0.324	0.339	1.04	0.273	0.48	0.509	0.421	0.653	0.447	0.8	0.802	0.971	0.694	0.676	0.532	0.496	0.547	0.506	0.486
NCI-H2228						0.953	0.809	0.633	0.552	0.737	0.662	0.514	0.404	0.559	0.471	0.588	0.91	0.496	0.894	0.516
LCLC-97TM1	0.356	0.205	0.307	0.251	0.247	1.11	0.875	0.724	0.575	1.12	0.397	0.337	0.475	0.265	0.359	0.73	0.635	0.747	0.615	0.56
LC-2-ad	0.896	0.873	0.899	0.897	0.96	0.72	0.681	0.788	0.726	0.76	0.811	0.738	0.699	0.751	0.683	0.753	0.748	0.742	0.745	0.764
SK-LU-1						0.902	0.779	0.643	0.75	0.852	0.536	0.456	0.494	0.389	0.466	0.944	0.75	0.824	0.933	0.867
EKVX	0.858	0.708	0.72	0.654	0.744	0.801	0.693	0.83	0.793	0.763	0.942	0.934	0.787	0.774	0.86	0.819	0.749	0.76	0.771	0.725
HCC-827	0.256	0.281	0.253	0.355	0.286	0.87	0.871	0.739	0.864	0.771	0.818	0.579	0.557	0.737	0.638	0.854	1.02	0.805	0.85	0.554
NCI-H650	1.1	1.01	1.08	0.935	1.08	0.465	0.518	0.361	0.486	0.507	0.473	0.391	0.387	0.379	0.381	0.534	0.568	0.423	0.414	0.456
CAL-12T	0.634	0.662	0.661	0.629	0.686	1	0.58	0.773	0.762	1.13	0.749	0.693	0.72	0.668	0.678	0.621	0.787	0.713	0.945	0.754
NCI-H1648	0.673	0.863	0.751	0.621	0.825	0.876	0.484	0.589	0.34	0.399	1.05	0.906	0.84	0.739	0.873	0.348	0.405	0.52	0.709	0.224
NCI-H522	0.974	0.809	0.759	1.02	0.91	0.879	0.897	0.854	0.894	1.06	0.52	0.663	0.699	0.571	0.671	0.963	1.05	0.871	0.845	0.874
IA-LM						1.06	0.922	0.925	0.891	1.15	1.22	0.814	0.906	0.651	0.814	0.988	0.868	0.86		0.745
EPLC-272H	0.185	0.204	0.218	0.234	0.16	0.397	0.468	0.366	0.482	0.546	1.16	0.628	0.797	0.787	0.887	0.494	0.529	0.266	0.528	0.41
A-427	0.902	0.701	0.731	0.706	0.772	0.858	0.88	0.9	0.918	0.853	0.73	0.723	0.697	0.607	0.662	0.905	0.889	0.904		0.904
NCI-H647	0.675	0.408	0.555	0.402	0.0953	0.628	0.376	0.581	0.544	0.151	0.725	0.496	0.59	0.196	0.0974	0.336	0.621	0.429	0.548	0.381
NCI-H1975	0.825	0.731	0.778	0.868	0.775	0.791	0.672	0.712	0.83	0.831	1.03	0.761	0.815	0.705	0.495	0.733	0.724	0.699	0.758	0.636
